Test results from patent US7863329B2 (Eli Lilly and Company, priority 2005, dated 2011).
pKi: −log10 of the molar value.

Molecular target: T1, cloned human glucagon receptor (Homo sapiens, UniProt P47871)
T1 construct: expressed in transfected cells; host or cells: 293 HEK cells, hygromycin-selected; crude plasma membranes
Assay: Glucagon Receptor (hGlucR) Binding Assay (SPA, I-125 glucagon competition)
Source text: The second supernate is combined with the first supernate.
The specific activity is 2200 Ci/mmol.

T1 sequence (P47871 26-477): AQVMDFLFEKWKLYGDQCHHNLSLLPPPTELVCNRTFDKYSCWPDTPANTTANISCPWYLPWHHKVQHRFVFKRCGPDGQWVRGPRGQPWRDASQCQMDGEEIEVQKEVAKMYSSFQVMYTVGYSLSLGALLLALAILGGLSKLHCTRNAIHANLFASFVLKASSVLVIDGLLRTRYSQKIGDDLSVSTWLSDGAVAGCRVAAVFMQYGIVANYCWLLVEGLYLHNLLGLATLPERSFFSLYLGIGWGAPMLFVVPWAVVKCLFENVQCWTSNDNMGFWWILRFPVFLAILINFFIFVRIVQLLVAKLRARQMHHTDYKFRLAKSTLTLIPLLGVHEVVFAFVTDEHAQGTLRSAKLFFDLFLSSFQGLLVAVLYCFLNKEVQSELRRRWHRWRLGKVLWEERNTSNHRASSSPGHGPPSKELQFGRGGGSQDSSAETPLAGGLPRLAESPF

Compound	pKi
CC(C)CC(Cc1ccc(-c2ccc(C(C)(C)C)cc2)cc1)c1ccc(C(=O)NCCC(=O)O)cc1 (centres unmarked)	6.58
CCCCCCC(Cc1ccc(-c2ccc(C(F)(F)F)cc2)cc1)c1ccc(C(=O)NCCC(=O)O)cc1 (centres unmarked)	6.63
